In patent US11306063B2, “Heterocyclic naphthoquinones derivatives for use in the treatment of cancers including Cushing disease” (Commissariat a l'Energie Atomique et aux Energies …, priority 2016, dated 2022):
Where two headings read alike, the source gives them in different places.

Legend:
[1] = target: T1, USP2^CD (purified catalytic domain of USP2) (Homo sapiens, UniProt O75604); assay: Inhibition of purified USP2^CD enzymatic activity (Ub-AMC or Ub-Rho substrate); type: biochemical; settings: for inhibition at 0.01 µM: 0.01 μM compound; for inhibition at 0.05 µM: 0.05 μM compound; for inhibition at 0.1 µM: 0.1 μM compound; for inhibition at 0.5 µM: 0.5 μM compound; for inhibition at 1 µM: 1 μM compound; for inhibition at 5 µM: 5 μM compound; for inhibition at 10 µM: 10 μM compound; for inhibition at 25 µM: 25 μM compound; for inhibition at 50 µM: 50 μM compound; for inhibition of USP2^CD activity (IC50 range, FIG. 1): Ub-Rho substrate (0.1 μM)
T1 construct: The purified catalytic domain of USP2 (USP2^CD, in-house purified); His; made in house; host or cells: E. coli BL21 Gold
T1 sequence (O75604 267-599 limits assumed): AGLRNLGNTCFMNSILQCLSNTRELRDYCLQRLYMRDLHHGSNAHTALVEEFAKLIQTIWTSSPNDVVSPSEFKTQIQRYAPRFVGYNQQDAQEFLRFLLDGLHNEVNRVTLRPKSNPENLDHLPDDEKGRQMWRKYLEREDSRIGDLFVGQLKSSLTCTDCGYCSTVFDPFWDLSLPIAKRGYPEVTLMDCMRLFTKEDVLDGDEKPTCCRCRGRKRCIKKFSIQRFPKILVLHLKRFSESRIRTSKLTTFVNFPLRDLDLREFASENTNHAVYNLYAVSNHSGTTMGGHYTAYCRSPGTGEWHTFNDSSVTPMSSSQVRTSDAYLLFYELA
Procedure, shortened: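 His-tagged catalytic domain expressed in E. coli and Ni/gel-filtration purified; assayed in 50 mM HEPES pH 7.6 or 40 mM Tris pH 7.4 with 1 mM DTT. Compound added just before Ub-AMC or Ub-Rho substrate; fluorescence from hydrolysis followed over 20 or 30 min, median of duplicates.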

PC-3 cells = assay: Cytotoxicity assay (PrestoBlue cell viability), PC-3; type: cell-based; settings: Homo sapiens, 48 hours treatment
Experimental: (§1) Messa, Messa DX5, HCT116, HEK-293, PC-3, LNCaP, HCC827 and H1975 cell lines are issued from the American Type Culture Collection (ATCC).
(§2) Messa, Messa DX5 and HCT116 were maintained in McCoy's supplemented with 10% fetal bovine serum, and 1% penicillin/streptomycin. PC-3, LNCaP cells were maintained in RPMI medium supplemented with 10% fetal bovine serum, and 1% penicilin/streptomycin and in the case of Messa DX5: 500 nM Doxorubicin was added to maintain selection pressure. HEK293 were maintained in DMEM medium supplemented with 10% fetal bovine serum, and 1% penicillin/streptomycin. Cells were maintained at 37° C. with 5% CO2, 95% air, and humid atmosphere. In the case of hormonal dependent LNCaP cells, 2 μM DiHydroTestosterone (DHT) was added or not—depending on the type of biological assay—for the same incubation period as compounds.
(§3) For cytotoxicity assays, cells were seeded in 96-well microplates 24 hours before the addition of increasing concentrations of each compound in the culture medium. Cell viability was analyzed 48 hours following addition of each compound through the monitoring of mitochondrial […] activity using PrestoBlue® Cell Viability Reagent (Invitrogen; #A-13261). Paclitaxel was used as a control which is cytotoxic on various cancerous cells although not on chemoresistant MESSA DX5 lineage.

H1975 cells = assay: Cytotoxicity assay (PrestoBlue cell viability), H1975; type: cell-based, human
Experimental: as §1, §3

[2] = tested on: LNCaP prostatic cancer cells; assay: Cell growth inhibition and cell death induction (Incucyte), LNCaP; type: cell-based, human; settings: 48 hours, FIG. 12E,F
From the text: FIG. 12: The cell growth inhibition and cell death induction of non-small cell lung cancers (NSCLC), HCC827 cells and derivative Gefitinib-resistant clone H1975 (FIG. 12 A,B) and of PC-3 (FIG. 12 C,D) and LnCAP (FIG. 12 E,F) were monitored using Incucyte microscope. Histogram represent in A,C,E: the final cell area relative to the total well area in (%) and in B,D,F: the fluorescent area in μm2. Error bars indicate standard deviation between 6 technical replicates.
The cell growth inhibition and cell death induction of non-small cell lung cancers (NSCLC), HCC827 cells and derivative Gefitinib-resistant clone H1975 were monitored during a period of 72 hours using Incucyte microscope and dedicated programs allowing to monitor cell confluency (i.e.: cell surface area relative to total well surface) and cell death induction by adding Propidium Iodide (PI) at 1 μg/ml (Sigma Aldrich #P4864) in the culture medium.

MESSA cells = assay: Cytotoxicity assay (PrestoBlue cell viability), MESSA; type: cell-based; settings: Homo sapiens, MES-SA; 48 hours treatment; concentration inducing 50% cell mortality
Experimental: as §1, §2, §3

LNCaP cells = assay: Cytotoxicity assay (PrestoBlue cell viability), LNCaP; type: cell-based; settings: Homo sapiens, 48 hours treatment
Experimental: as §1, §2, §3

HEK293 cells = assay: Cytotoxicity assay (PrestoBlue cell viability), HEK293; type: cell-based; settings: Homo sapiens, 48 hours treatment
Experimental: as §1, §2, §3

[3] = Ub-AMC substrate at 1 μM, Table 2b, read-out: IC50 USP2 CD

Row | inhibition at 0.01 µM ([1]; Table 1c) [%] | inhibition at 0.05 µM ([1]; Table 1c) [%] | inhibition at 0.1 µM ([1]; Table 1c) [%] | inhibition at 0.5 µM ([1]; Table 1c) [%] | inhibition at 1 µM ([1]; Table 1b) [%] | inhibition at 1 µM ([1]; Table 1c) [%] | inhibition at 5 µM ([1]; Table 1b) [%] | inhibition at 5 µM ([1]; Table 1c) [%] | inhibition at 10 µM ([1]; Table 1c) [%] | inhibition at 25 µM ([1]; Table 1b) [%] | inhibition at 50 µM ([1]; Table 1b) [%] | IC50 [1, 3] [nM] | Structure (SMILES) | EC50 (PC-3 cells) [nM] | EC50 (H1975 cells; Homo sapiens, NCI-H1975, 48 h) [nM] | cell growth inhibition and cell death induction, LNCaP [2] | EC50 (MESSA cells) [nM] | EC50 (LNCaP cells) [nM] | EC50 (HEK293 cells) [nM] | inhibition of USP2^CD activity (IC50 range, FIG. 1) [1] | further results
1 | -29 | 2 | 9 | 10 | 54 | 12 | 68 | 20 | 17 | 86 | 96 | > 10000 | O=C1c2ccccc2C(=O)c2nc(CS(=O)(=O)c3ccccc3F)c(CS(=O)(=O)c3ccccc3F)nc21 [OVM24] | 2500 | 2000 | inhibit cell growth and induce cell death in a dose dependent manner | 700 | 1300 | 2500 |  | 
2 |  |  |  |  |  |  |  |  |  |  |  |  | CCCCS(=O)(=O)Cc1nc2c(o1)C(=O)c1ccccc1C2=O [PCR9301] | 1000 |  |  | 1300 | 1300 |  | in the micromolar range | inhibition at 1 µM ([1]; Table 3a): 77%; inhibition at 5 µM ([1]; Table 3a): 99%; inhibition at 25 µM ([1]; Table 3a): 100%; inhibition at 50 µM ([1]; Table 3a): 100%; IC50 ([1]; Ub-Rho substrate, Table 3b, read-out: IC50 against purified USP2^CD): 400 nM
3 | 1 | -13 | -23 | 23 | 38 | 17 | 81 | 70 | 77 | 98 | 101 | 3000 | CCCS(=O)(=O)Cc1nc2c(nc1CS(=O)(=O)CCC)C(=O)c1ccccc1C2=O [VIN6074] | 2300 | 2000 | inhibit cell growth and induce cell death in a dose dependent manner | 2700 | 1900 | 1500 |  | IC50 ([1]; Ub-Rhodamine substrate at 0.1 μM, Table 2c, read-out: IC50 USP2 CD): 500 nM
4 |  |  |  |  |  |  |  |  |  |  |  |  | CCCCS(=O)(=O)Cc1nc2c(nc1CS(=O)(=O)CCCC)C(=O)c1ccccc1C2=O [PCR6236] | 800 |  | inhibit cell growth and induce cell death in a dose dependent manner | 2000 | 2000 | 1400 | in the micromolar range | IC50 [1]: 2100 nM; EC50 (H1975 cells; 48 hours treatment, Gefitinib resistant cells): 3000 nM; EC50 (H1975 cells; Homo sapiens, NCI-H1975, 48 h, 48 hours treatment, Gefitinib resistant cells): ≤ 3000 nM
